In patent US20150289512A1, “METHOD FOR PROMOTING PLANT GROWTH” (SUMITOMO CHEMICAL COMPANY, LIMITED, priority 2012, published 2015):

Experiments:
[1] = system: Rice (variety: Nipponbare); experiment: Test Example 3: promotion of root growth by hydroponics of rice, 0.1 ppm; format: in vivo; settings: Oryza sativa, hydroponic solution containing the test compound at 0.1 ppm, average of 4 or 5 individuals, read-out: Relative value of length of seminal root (%-untreated control plot)
Procedure, shortened: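 Surface-sterilised Nipponbare seeds were germinated 3 days in the dark at 28 °C in ¼-strength Hoagland solution containing 0.1 ppm compound; DMSO-only solution served as control. Seedlings were then grown 3 days hydroponically at 26 °C, 4,000 lux, 16 h day. Seminal root length was measured and averaged over 4–5 plants.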

Nicotiana benthamiana = experiment: Test Example 6: growth promotion under low-temperature stress by hydroponics of Nicotiana benthamiana, 0.1 ppm; format: in vivo; settings: 0.1 ppm in medium, low-temperature stress 7 days at 1.5±1.0° C., green leaf area 3 days later, equation (1)
Procedure, shortened: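 Seeds grown in half-strength Murashige–Skoog medium (pH 5.8), compound at 0.1 ppm (0.1% DMSO), 7 days at 22 °C, 4,000 lux, 16 h day; then 7 days at 1.5±1.0 °C, 2,000 lux; then 3 days recovery at 22 °C. Green leaf area imaged; relative leaf area versus DMSO controls before and after cold, ≥5 scored as mitigating.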

| SMILES | change in vivo at 0.1 ppm [1] [%] | relative leaf area (% of untreated control) at 0.1 ppm (Nicotiana benthamiana) [%] |
| --- | --- | --- |
| COC(=O)c1oc2ccc(C(F)(F)F)cc2c1O [Compound 50] | > 5 | ≥ 5 |
| COC(=O)c1oc2ccc(C(F)(F)F)cc2c1N(C)C [Compound 62] | – | ≥ 5 |
| CNC(=O)c1cc2cc(C(F)(F)F)ccc2o1 [Compound 52] | > 5 | ≥ 5 |
| COC(=O)c1oc2ccccc2c1N(C(C)=O)C(C)=O [Compound 41] | > 5 | – |
| COC(=O)c1oc2ccc(C(F)(F)F)cc2c1NC(=O)C(F)(F)F [Compound 65] | – | ≥ 5 |
| O=C(OCc1ccccc1)c1cc2cc(C(F)(F)F)ccc2o1 [Compound 56] | > 5 | ≥ 5 |
| COC(=O)c1oc2ccc(C(F)(F)F)cc2c1NC(C)=O [Compound 63] | – | ≥ 5 |
| COC(=O)c1cc2c(C(F)(F)F)cccc2o1 [Compound 45] | > 5 | ≥ 5 |
| CNC(=O)c1oc2ccc(C(F)(F)F)cc2c1C(F)(F)F [Compound 75] | > 5 | – |
| O=C(NCc1ccccc1)c1oc2ccc(C(F)(F)F)cc2c1C(F)(F)F [Compound 77] | – | ≥ 5 |
| Cc1c(C(=O)O)oc2ccccc12 [Compound 36] | > 5 | ≥ 5 |
| NC(=O)c1oc2ccc(C(F)(F)F)cc2c1C(F)(F)F [Compound 74] | > 5 | ≥ 5 |
| COC(=O)c1cc2cc(C(F)(F)F)ccc2o1 [Compound 3, methyl 5-(trifluoromethyl)benzofuran-2-carboxylate] | – | ≥ 5 |
| O=C(O)c1cc2c(C(F)(F)F)cccc2o1 [Compound 43] | > 5 | ≥ 5 |
| COC(=O)c1oc2ccc(C(F)(F)F)cc2c1C [Compound 33] | > 5 | – |
| O=C(NCc1ccccc1)c1cc2cc(C(F)(F)F)ccc2o1 [Compound 54] | > 5 | ≥ 5 |
| COC(=O)c1oc2ccccc2c1C(F)(F)F [Compound 83] | > 5 | – |
| O=C(Nc1ccccc1)c1oc2ccc(C(F)(F)F)cc2c1C(F)(F)F [Compound 76] | > 5 | ≥ 5 |
| COC(=O)c1oc2ccc(C(F)(F)F)cc2c1NS(C)(=O)=O [Compound 67] | > 5 | – |

| SMILES | change in vivo at 0.1 ppm [1] [%] | relative leaf area (% of untreated control) at 0.1 ppm (Nicotiana benthamiana) [%] |
| --- | --- | --- |
| COC(=O)c1oc2ccc(C(F)(F)F)cc2c1C(F)(F)F [Compound 70] | – | ≥ 5 |
| O=C(OCc1ccccc1)c1oc2ccc(C(F)(F)F)cc2c1C(F)(F)F [Compound 73] | > 5 | ≥ 5 |
| O=C(O)c1nc2c(F)cc(F)cc2s1 [Compound 86] | – | ≥ 5 |
| Cc1c(C(=O)O)oc2ccc(C(F)(F)F)cc12 [Compound 34] | > 5 | – |
| NC(=O)c1cc2cc(C(F)(F)F)ccc2o1 [Compound 51] | > 5 | – |
| O=C(Nc1ccccc1)c1cc2cc(C(F)(F)F)ccc2o1 [Compound 53] | > 5 | ≥ 5 |
| CCOC(=O)c1oc2ccc(C(F)(F)F)cc2c1C(F)(F)F [Compound 71] | > 5 | ≥ 5 |
| COC(=O)c1oc2ccc(C(F)(F)F)cc2c1N(C(C)=O)C(C)=O [Compound 64] | > 5 | ≥ 5 |
| COC(=O)c1oc2ccccc2c1NC(C)=O [Compound 40] | > 5 | – |
| COC(=O)c1oc2ccccc2c1C [Compound 37] | > 5 | – |
| CCOC(=O)c1oc2cccc(O)c2c1C [Compound 80] | > 5 | ≥ 5 |
| O=C(O)c1cc2cc(Br)ccc2o1 [Compound 79] | > 5 | ≥ 5 |
| NC(=O)c1oc2ccccc2c1C(F)(F)F [Compound 85] | – | ≥ 5 |
| CCOC(=O)c1cc2c(C(F)(F)F)cccc2o1 [Compound 44] | > 5 | – |
| COC(=O)c1oc2ccc(C(F)(F)F)cc2c1NS(=O)(=O)c1ccccc1 [Compound 68] | > 5 | ≥ 5 |
| O=C(Oc1ccccc1)c1cc2cc(C(F)(F)F)ccc2o1 [Compound 55] | > 5 | – |
| COC(=O)c1oc2ccccc2c1NC(=O)C(F)(F)F [Compound 39] | – | ≥ 5 |
| O=C(O)c1oc2ccc(C(F)(F)F)cc2c1C(F)(F)F [Compound 69] | – | ≥ 5 |
